Results published in patent US9856225B2, “Substituted phenazines as antimicrobial agents” (University of Florida Research Foundation, Incorporated, priority 2013, dated 2018).
“And” between values parts separate entries of the source, which are not always exact repeats. Identical values can stand only once. Like-named read-outs stand apart in the source and are kept apart here.

Legend:
Type in all cases: cell-based
[1] = test system: Pseudomonas aeruginosa (PAO1); assay: MIC broth microdilution (CLSI), Luria Broth
Procedure: (§1) Antibiotic Susceptibility Tests (MIC Assay Protocol). The minimum inhibitory concentration (MIC) for each compound described herein was determined by the broth microdilution method as recommended by the Clinical and Laboratory Standards Institute (CLSI) (Clinical and Laboratory Standards Institute. 2009. Methods for dilution antimicrobial susceptibility tests for bacteria that grow aerobically; approved standard, eighth edition (M7-A8)). In a 96-well plate, eleven two-fold serial dilutions of each compound were made in a final volume of 100 μL Luria Broth (one column served as a blank; see the MIC assay described herein). Each well was inoculated with 10^5 bacterial cells at the initial time of incubation, prepared from a fresh log phase culture (OD600 of 0.5). […] The concentration range tested for each compound during this study was 0.10 to 100 μM. DMSO served as the vehicle and negative control in each microdilution MIC assay. DMSO was serially diluted at the same concentration as the compounds with a top concentration of 1% v/v. Bacterial strains used: Staphylococcus aureus (ATCC 25923), Staphylococcus epidermidis (ATCC 12228) and Pseudomonas aeruginosa (PAO1). Kanamycin was used as a positive control against Staphylococcus aureus and Staphylococcus epidermidis.

[2] = test system: Staphylococcus aureus (ATCC 25923); assay: MIC broth microdilution (CLSI), Luria Broth; details: Staphylococcus aureus
Procedure: as §1

[3] = test system: Staphylococcus epidermidis (ATCC 12228); assay: MIC broth microdilution (CLSI), Luria Broth
Procedure: as §1

[4] = test system: Staphylococcus aureus (ATCC 25923) biofilm; assay: Biofilm inhibition, crystal violet staining; set-up: MIC/IC50 Biofilm: unit not given here; details: S. aureus ATCC 25923; for Phenotype: planktonic growth vs biofilm formation; for IC50: Staphylococcus aureus, ATCC25923, single replicate screen, read-out: Biofilm Inhibition IC50; for MIC/IC50 Biofilm: ratio of MIC to IC50 of biofilm inhibition
Procedure: Biofilm Inhibition Protocol for S. aureus (ATCC 25923). A serial two-fold dilution of 2× bromophenazine small molecule concentration was made in 100 μL tryptic soy broth (TSB) medium with 0.5% glucose were delivered into 0.1% gelatin (Millipore) coated 96-well tissue culture plates. […] To each well, 100 μL of TSB with 0.5% glucose containing 2×10^6 CFU/mL Staphylococcus aureus cells, prepared from fresh culture (OD600 of 0.8), was added. The plates were incubated at 37° C. for 24 hours. The wells were gently rinsed by submerging the entire plates in a tub of cold, running tap water. The wells were then fixed with 200 μL methanol for 15 minutes. After the plates were air dried, the biofilms were stained with 100 μL of 1% crystal violet for 10 minutes. The plates were again rinsed with running water. After drying in air, quantitative assessment of biofilm formation was obtained by extracting the crystal violet associated with the remaining biofilm with 100 μL per well of the following bleaching solution (methanol:glacial acetic acid:water (v/v/v)=4:1:5). This bleaching solution dissolved the bound crystal violet and produced a violet-colored solution in each well. The intensity of coloration was determined by measuring the absorbance at 540 nm.

[5] = test system: Acinetobacter baumannii (ATCC 19606) biofilm; assay: Biofilm inhibition, Mueller-Hinton broth, crystal violet; details: Acinetobacter baumannii, ATCC19606; A. baumannii ATCC 19606; 100 μM; read-out: % Biofilm Inhibition at 100 μM
Procedure: (§2) Biofilm Inhibition Protocol for A. baumannii (ATCC 19606): In a 96-well plate, ten two-fold serial dilutions of each compound tested were made from the highest concentration tested (100 μM) in a final volume of 100 μL in Mueller-Hinton broth (one column served as a blank). Each well was inoculated with ˜7×10^6 colony forming units per milliliter (corresponding to an OD600 of 0.01 prepared directly from an overnight culture). A lid was placed on the 96-well plate which was wrapped in suran wrap, placed in a humidifying chamber and incubated under static conditions at 37° C. for 24 hours. Following incubation, the media and planktonic bacteria were then removed from 96-well plates and the wells were then washed with water. The bacterial biofilms within the microtiter wells were stained with 200 μL of an aqueous 0.1% crystal violet solution that was allowed to stand for 10-20 minutes. The crystal violet stain was then removed, the wells were rinsed with water and dried. The crystal violet stain that remained on the inside of the wells (i.e., stained bacterial biofilm) on the inside of the wells was solubilized by the addition of 200 μL ethanol and absorbance was read at OD540 using a spectrophotometer. NOTE: The concentration range tested for each compound was 0.2-100 μM. Single data points for all compounds and DMSO controls were tested in two replicate rows in 96-well plates and corresponding absorbance readings were averaged for the quantification of planktonic growth and biofilm formation. Reported percent biofilm inhibition was determined by the comparison of compound treated wells (the average of the two replicate wells) versus vehicle control wells without compound following background subtraction (i.e., an empty, untreated well) and reported from 2 to 4 independent overnight cultures. DMSO was serially diluted at the same concentration as test compounds with a top concentration of 1% v/v.
(§3) The bromophenazines were also evaluated against the Gram-negative bacterium Acinetobacter baumannii in order to identify biofilm modulating small molecules against this emerging pathogen. Acinetobacter baumannii is notorious for its ability to persist as bacterial biofilms on hospital surfaces, giving rise to many multidrug-resistant nosocomial infections. Clinical isolates of A. baumannii have been identified that are resistant to every class of antibiotic clinically used. The bromophenazines were evaluated against Acinetobacter baumannii ATCC 19606 in biofilm inhibition assays. Bromophenazines were allowed to incubate in 96-well plates with Acinetobacter baumannii (˜7×10^6 CFUmL^−1 by adjusting an overnight culture to an OD600˜0.01) for 24 hours at 37° C. using Mueller-Hinton broth followed by spectrophometer readings of each plate to evaluate planktonic growth (OD600) and biofilm formation (OD540 after crystal violet stain of biofilms inside microtiter wells). […] This biofilm inhibition with activation of planktonic growth activity was dose-dependent with bromophenazine 17a (see FIG. 20).

[6] = test system: Acinetobacter baumannii (ATCC 19606); assay: Planktonic growth (OD600) in biofilm inhibition assay; details: for inhibition of growth at 100 µM: Acinetobacter baumannii, ATCC19606, 24 h, A. baumannii ATCC 19606, * = no growth inhibition at 200 μM, read-out: % Growth Inhibition at 100 μM
Procedure: as §2, with “Each” for “Biofilm Inhibition Protocol for A. baumannii (ATCC 19606): In a 96-well plate, ten two-fold serial dilutions of each compound tested were made from the highest concentration tested (100 μM) in a final volume of 100 μL in Mueller-Hinton broth (one column served as a blank). Each”, “NOTE: The concentration range tested for each compound was 0.2-100 μM.” left out
as §3

[7] = Table 1, PAO1, read-out: Pseudomonas aeruginosa MIC
[8] = ATCC25923, Table 1, ATCC 25923, range tested 0.10 to 100 μM, read-out: Staphylococcus aureus MIC
[9] = ATCC25923, Table 1, ATCC 25923, read-out: Staphylococcus aureus MIC
[10] = ATCC12228, Table 1, ATCC 12228, read-out: Staphylococcus epidermidis MIC
[11] = ATCC25923, Table 2, S. aureus ATCC 25923, Luria Broth, read-out: MIC

Compound | MIC [1, 7] [µM] | MIC [2, 8] [µM] | MIC [2, 9] [µg/mL] | MIC [3, 10] | further results
COc1ccc2nc3c(C(=O)O)cccc3nc2c1 [Compound 8, 7-Methoxyphenazine-1-carboxylic acid] | > 100 | > 100 | > 25.5 | > 100 µM and > 25.5 µg/mL | 
Oc1ccc(Br)c2nc3ccccc3nc12 [Compound 20, 4-Bromophenazin-1-ol] | > 100 | > 100 | > 27.5 |  | 
COc1ccc(Br)c2nc3ccccc3nc12 [Compound 19, 1-Bromo-4-methoxyphenazine] | > 100 | > 100 | > 28.9 |  | 
O=C(O)c1cccc2nc3ccccc3nc12 [Compound 3, Phenazine-1-carboxylic acid, reference compound] | > 100 | > 100 | > 22.5 | > 100 µM and > 22.5 µg/mL | 
O=C(Oc1c(Br)cc(Br)c2nc3ccccc3nc12)c1cccc(Br)c1 [Compound 25, 2,4-Dibromophenazin-1-yl 3-bromobenzoate] |  | 3.13 | 1.68 | 3.13 µM and 1.68 µg/mL | MIC [2, 11]: 3.13 µM; Phenotype [4]: antibacterial; IC50 [4]: 930 nM; MIC/IC50 Biofilm [4]: 3.4; inhibition at 100 µM [5]: 49 ± 6%; increase in planktonic growth ([6]; 100 μM, OD600): ~15%; planktonic growth inhibition at 200 μM ([6]; 200 μM): did not inhibit planktonic growth; inhibition of growth at 100 µM ([6]; 100 μM): -18 ± 4%
O=C(O)c1cccc2nc3cc(Br)ccc3nc12 [Compound 9, 7-Bromophenazine-1-carboxylic acid] | > 100 | 100 | 30.3 | 100 µM and 30.3 µg/mL | 
NC(=O)c1cccc2nc3ccccc3nc12 [Compound 4, Phenazine-1-carboxamide, reference compound] | > 100 | > 100 | > 22.4 | > 100 µM and > 22.4 µg/mL | 
Nc1c(Br)cc(Br)c2nc3ccccc3nc12 [Compound 17, 2,4-Dibromophenazin-1-amine] | > 100 | > 100 | > 35.4 |  | 
Nc1cccc2nc3cc(Br)ccc3nc12 [Compound 14, 7-Bromophenazin-1-amine] | > 100 | > 100 | > 27.4 |  | 
Oc1cccc2nc3ccccc3nc12 [Compound 2, 1-Hydroxyphenazine, reference compound] |  |  |  |  | MIC ([1]; PAO1, read-out: Pseudomonas aeruginosa MIC): > 100 µM; MIC ([2]; ATCC25923, read-out: Staphylococcus aureus MIC): > 100 µM and > 19.7 µg/mL; MIC ([3]; ATCC12228, read-out: Staphylococcus epidermidis MIC): > 100 µM and > 19.7 µg/mL
O=C(O)c1cccc2nc3cccc(Cl)c3nc12 [Compound 10, 9-Chlorophenazine-1-carboxylic acid] | > 100 | 50 | 13 | 50 µM and 13 µg/mL | 
CC(C)C(=O)Oc1c(Br)cc(Br)c2nc3ccccc3nc12 [Compound 22, 2,4-Dibromophenazin-1-yl isobutyrate] |  | 1.56 | 0.66 | 1.56 µM and 0.66 µg/mL | MIC [2, 11]: 1.56 µM; Phenotype [4]: antibacterial; IC50 [4]: 990 nM; MIC/IC50 Biofilm [4]: 1.6; inhibition at 100 µM [5]: 26 ± 12%; inhibition of growth at 100 µM ([6]; 100 μM): -13 ± 5%
Nc1cccc2nc3ccccc3nc12 [Compound 6, Phenazin-1-amine] | > 100 | > 100 | > 19.6 | > 100 µM and > 19.6 µg/mL | 
Oc1c(Br)ccc2nc3ccccc3nc12 [Compound 5, 2-Bromophenazin-1-ol, reference compound] | > 100 | 6.25 | 1.72 | 6.25 µM and 1.72 µg/mL | 
COc1cc2nc3c(C(=O)O)cccc3nc2c(OC)c1OC [Compound 12, 6,7,8-Trimethoxyphenazine-1-carboxylic acid] | > 100 | > 100 | > 31.5 | > 100 µM and > 31.5 µg/mL | 
Nc1c(Br)cc(Br)c2nc3cc(Br)ccc3nc12 [Compound 16, 2,4,7-Tribromophenazin-1-amine] | > 100 | > 100 | > 43.2 |  | 
O=C(O)c1cccc2c1nc1ccccc1[n+]2[O-] [Compound 7, 1-Carboxyphenazine 5-oxide] | > 100 | > 100 | > 24.1 | > 100 µM and > 24.1 µg/mL | 
NC(=O)c1cccc2nc3cc(Br)ccc3nc12 [Compound 15, 7-Bromophenazine-1-carboxamide] | > 100 | > 100 | > 30.2 |  | 
CCc1ccc2nc3c(C(=O)O)cccc3nc2c1 [Compound 13, 7-Ethylphenazine-1-carboxylic acid] | > 100 | > 100 | > 25.3 | > 100 µM and > 25.3 µg/mL | 
